Data on 16 compounds can be found in US4629737A, “Secondary amines and use in pharmaceutical compositions” (Beecham Group p.l.c., priority 1982, dated 1986).

Counter-ions that a name gives are not always drawn. Like-named read-outs stand apart in the source and are kept apart here.

For one experiment, the system named is blood glucose. In words: Hypoglycaemic activity: reduction in area under blood glucose curve after glucose load. The experiment is classed as in vivo, Female CFLP mice. The note with it: Mus musculus. Here is the method: Female CFLP mice, weighing approximately 25 g, were fasted for 24 hours prior to the study. The compounds under study were administered orally as an aqueous solution to each of 6 mice. 30 minutes later a blood sample (10 μl) was obtained from the tail for the analysis of blood glucose. Immediately after taking this blood sample, glucose (1 g/Kg body weight) was administered subcutaneously to each mouse. 6 mice were given water as a control. Blood samples were then obtained from each mouse at 30 minute intervals for 120 minutes.
Compounds that produced a significant (P<0.05) reduction of blood glucose, compared with control mice given water, at any time interval, were considered active. The area under the blood glucose curve over the 2 hour period after the administration of the glucose was calculated for each compound and compared with the value for control animals.

Experiment [1] is described as follows: Effect on energy expenditure of mice. The experiment is classed as in vivo, Female CFLP mice. Conditions: Mus musculus; for response vs control in vivo at 8.5 mg/kg: 8.5 mg/kg po. The procedure: Female CFLP mice, each weighing approximately 24 g were given food and water ad lib before and during the experiment. The compounds were dissolved in water by addition of one mole of hydrochloric acid per mole of compound and these solutions were administered orally to each of 12 mice. A further 12 mice were dosed orally with water. The mice were placed in boxes through which air was drawn and the oxygen content of the air leaving the boxes was measured. The energy expenditure of the mice was calculated for 21 hours after dosing from the volume of air leaving the boxes and its oxygen content, following the principles described by J. B. de V. Weir, J. Physiol. (London), 109, 1-9 (1949).

A further experiment has as its system right atrium. The experiment can be described thus: Isolated rat atria screen: rate of spontaneously beating right atrium. Further details: species or system Sprague-Dawley male rats. The note with it: for Emax: maximal effect relative to isoprenaline maximum (=1), read-out: Rate i.a. (intrinsic activity). Here is the method:
(§1) Sprague-Dawley male rats (300-400 g) are killed and the right and left atria dissected out independently and mounted on a combined tissue holder/electrode. The tissues are then immersed in a glass bath containing Krebs solution maintained at 32° C. The rate of the spontaneously beating right atrium (via an isometric transducer and a ratemeter) and the tension of the electrically paced left atrium (via an isometric transducer) are recorded on an M19 chart recorder.
(§2) After an initial stabilization period, the tissues are exposed to a maximal concentration of isoprenaline (10^-7 M). The tissues are then washed several times until rate and tension return to baseline level. A dose-response curve to the test compound is then carried out.
(§3) Responses to each concentration of test compound are expressed as a percentage of the maximal responses to isoprenaline. Results are given in the form of (a) intrinsic activity (i.a.) (maximal effect of test compound with respect to isoprenaline maximum, i.e. isoprenaline intrinsic activity=1) and (b) EC50 (the molar concentration at which the test compound produces 50% of its own maximum response).

Another experiment deals with left atrium. In words: Isolated rat atria screen: tension of electrically paced left atrium. Further details: species or system Sprague-Dawley male rats. Conditions: for Emax: maximal effect relative to isoprenaline maximum (=1), read-out: Tension i.a. (intrinsic activity). The procedure:
as §1, §2, §3

Setting [2] is: po, 2 h, read-out: % Reduction in area under Blood Glucose Curve.
Where [3] appears, read: po, 3 h, read-out: Mean Energy Expenditure (0-3 h).
Setting [4] is: po, 21 h, read-out: Mean Energy Expenditure (0-21 h).
Where [5] appears, read: concentration producing 50% of its own maximum response.
[6] abbreviates: 2.5 μmol/Kg oral, 2 h after glucose 1 g/Kg s.c., vs control, read-out: % Reduction in area under Blood Glucose Curve.

With `CNCCOc1ccc(CC(C)NCC(OC)c2cccc(Cl)c2)cc1` (stereo not drawn) [Example 6, N-[2-(4-(2-Methylaminoethoxy)phenyl)-1-methylethyl]-2-methoxy-2-(3-chlorophenyl)ethanamine dihydrochloride], in the experiment with blood glucose (setting [2]), the inhibition in vivo at 12.5 µmol/kg is 55%. For the same compound, the response vs control in vivo at 22.5 mg/kg in experiment [1] (setting [3]) came to 154%; in experiment [1] (setting [4]) it was 126%. Further, the Emax in the experiment with right atrium and in the experiment on left atrium was 0% each time.

With `CNC(=O)COc1ccc(CC(C)NCC(OC)c2cccc(C(F)(F)F)c2)cc1` (stereo not drawn) [Example 7, N-[2-(4-Methylaminocarbonylmethoxyphenyl)-1-methylethyl]-2-methoxy-2-(3-trifluoromethylphenyl)ethanamine hydrochloride], the inhibition in vivo at 2.5 µmol/kg in the experiment with blood glucose (setting [2]) was determined as 32%. The values for the response vs control in vivo at 23 mg/kg in experiment [1] (setting [3]) and in experiment [1] (setting [4]) were 143% and 123%, respectively. Further, the EC50 came to 1.5 µM in the experiment with right atrium (setting [5]) and 36 µM in the experiment on left atrium (setting [5]). For the same compound, the Emax in the experiment on right atrium is 6%; with left atrium, 23%.

On to `CCCCOC(CNC(C)Cc1ccc(OCC(=O)NC)cc1)c1cccc(Cl)c1` (stereo not drawn) [Example 43, N-[2-(4-Methylaminocarbonylmethoxyphenyl)-1-methylethyl]-2-^n butoxy-2-(3-chlorophenyl)ethanamine hydrochloride hemihydrate], for which the inhibition in vivo at 2.5 µmol/kg in the experiment with blood glucose (setting [6]) amounted to 31%. The response vs control in vivo at 24.2 mg/kg in experiment [1] (24.2 mg/kg po, 0-3 h, read-out: Mean Energy Expenditure (0-3 h)) worked out at 144%; in experiment [1] (24.2 mg/kg po, 0-21 h, read-out: Mean Energy Expenditure (0-21 h)), 105%.

In the experiment on blood glucose (7.5 μmol/Kg oral, 2 h after glucose 1 g/Kg s.c., vs control), `CCCCCCOC(CNC(C)Cc1ccc(OCC(=O)OC)cc1)c1cccc(Cl)c1` (stereo not drawn) [Example 44, N-[2-(4-Carbomethoxymethoxyphenyl)-1-methylethyl]-2-^n hexyloxy-2-(3-chlorophenyl)ethanamine hydrochloride] came in with an inhibition in vivo at 7.5 µmol/kg of 34%. The response vs control in vivo at 24.9 mg/kg is 145% in experiment [1] (setting [3]) and 101% in experiment [1] (24.9 mg/kg po, 0-21 h, read-out: Mean Energy Expenditure (0-21 h)).

For `CNCCOc1ccc(CC(C)NCC(OC)c2cccc(C(F)(F)F)c2)cc1` (stereo not drawn) [Example 46, N-[2-(4-(2-Methylaminoethoxy)phenyl)-1-methylethyl]-2-methoxy-2-(3-trifluoromethylphenyl)ethanamine dihydrochloride], the inhibition in vivo at 5 µmol/kg in the experiment on blood glucose (setting [2]) was 20%. Moreover, the response vs control in vivo at 24.2 mg/kg amounted to 122% in experiment [1] (setting [3]) and 104% in experiment [1] (setting [4]).

On to `COC(=O)/C=C/c1ccc(CC(C)NCC(OC)c2cccc(Cl)c2)cc1` (stereo not drawn) [Example 47, N-[2-(4-{[E]-2-Carbomethoxyethenyl}phenyl)-1-methylethyl]-2-methoxy-2-(3-chlorophenyl)ethanamine hydrochloride], for which the inhibition in vivo at 12.5 µmol/kg in the experiment with blood glucose (setting [2]) was found to be 41%. In addition, the response vs control in vivo at 21.3 mg/kg in experiment [1] (setting [3]) was 130%; in experiment [1] (setting [4]) it was 109%.

Take `COC(CNC(C)Cc1ccc(OCCO)cc1)c1cccc(Cl)c1` (stereo not drawn) [Example 48, N-[2-{4-(2-Hydroxyethoxy)phenyl}-1-methylethyl]-2-methoxy-2-(3-chlorophenyl)ethanamine hydrobromide]: the inhibition in vivo at 0.5 µmol/kg in the experiment with blood glucose (setting [2]) stood at 31%. The figures for the response vs control in vivo at 22.2 mg/kg in experiment [1] (setting [3]) and in experiment [1] (setting [4]) were 128% and 131%, respectively.

In the case of `COC(=O)Cc1ccc(CC(C)NCC(OC)c2cccc(Cl)c2)cc1` (stereo not drawn) [Example 49, N-[2-(4-Carbomethoxymethylphenyl)-1-methylethyl]-2-methoxy-2-(3-chlorophenyl)ethanamine hydrochloride], in the experiment with blood glucose (setting [2]), the inhibition in vivo at 12.5 µmol/kg stood at 47%. Further, the response vs control in vivo at 20.6 mg/kg in experiment [1] (setting [3]) came to 131%; in experiment [1] (setting [4]), 135%.

Turning to `COC(=O)COc1ccc(CC(C)NCC(OCc2ccccc2)c2cccc(Cl)c2)cc1` (stereo not drawn) [Example 50, N-[2-(4-Carbomethoxymethoxyphenyl)-1-methylethyl]-2-benzyloxy-2-(3-chlorophenyl)ethanamine hydrochloride], in the experiment with blood glucose (setting [2]), the inhibition in vivo at 2.5 µmol/kg was 41%. Besides, the response vs control in vivo at 24.6 mg/kg in experiment [1] (setting [3]) was 142%; in experiment [1] (setting [4]), 116%.

Consider `CNC(=O)COc1ccc(CCNCC(OC)c2cccc(Cl)c2)cc1` (stereo not drawn) [Example 51, N-[2-(4-Methylaminocarbonylmethoxyphenyl)ethyl]-2-methoxy-2-(3-chlorophenyl)ethanamine hydrochloride], for which the inhibition in vivo at 12.5 µmol/kg with blood glucose (12.5 μmol/Kg oral, 2 h after glucose 1 g/Kg s.c., vs control, read-out: % Reduction in area under Blood Glucose Curve) stood at 45%. For the same compound, the response vs control in vivo at 20.7 mg/kg in experiment [1] (setting [4]) came to 108%; in experiment [1] (20.7 mg/kg po, 0-3 h, read-out: Mean Energy Expenditure (0-3 h)), 128%.

In the case of `CNC(=O)COc1ccc(CC(C)NCC(COc2ccccc2)OC)cc1` (stereo not drawn) [Example 52, N-[2-(4-Methylaminocarbonylmethoxyphenyl)-1-methylethyl]-2-methoxy-3-phenoxypropanamine hydrochloride], in the experiment with blood glucose (setting [2]), the inhibition in vivo at 12.5 µmol/kg worked out at 35%. Also, the figures for the response vs control in vivo at 21.1 mg/kg in experiment [1] (setting [3]) and in experiment [1] (setting [4]) were 130% and 113%, respectively.

For the compound `CNC(=O)COc1ccc(CC(C)NCC(OC)c2ccccc2F)cc1` (stereo not drawn) [Example 55, N-[2-(4-Methylaminocarbonylmethoxyphenyl)-1-methylethyl]-2-methoxy-2-(2-fluorophenyl)ethanamine hydrochloride], in the experiment with blood glucose (setting [2]), the inhibition in vivo at 12.5 µmol/kg was found to be 42%. Also, the response vs control in vivo at 20.6 mg/kg in experiment [1] (setting [3]) was 150%; in experiment [1] (setting [4]), 121%.

As for `CNC(=O)COc1ccc(CC(C)NCC(OC)c2cccc(C)c2)cc1` (stereo not drawn) [Example 56, N-[2-(4-Methylaminocarbonylmethoxyphenyl)-1-methylethyl]-2-methoxy-2-(3-methylphenyl)ethanamine hydrochloride], the inhibition in vivo at 12.5 µmol/kg with blood glucose (setting [2]) stood at 40%. For the same compound, the response vs control in vivo at 20.4 mg/kg in experiment [1] (setting [3]) came out at 148%; in experiment [1] (setting [4]) it was 108%.

For the compound `COC(CNC(C)Cc1ccc(OCCOc2ccccc2)cc1)c1cccc(Cl)c1` (stereo not drawn) [Example 57, N-[2-(4-(2-Phenoxyethoxy)phenyl)-1-methylethyl]-2-methoxy-2-(3-chlorophenyl)ethanamine hydrochloride], the inhibition in vivo at 2.5 µmol/kg in the experiment with blood glucose (setting [2]) was determined as 28%. For the same compound, the response vs control in vivo at 23.8 mg/kg in experiment [1] (setting [3]) was 178%; in experiment [1] (setting [4]) it was 123%.

As to `COC(=O)CN(C)c1ccc(CC(C)NCC(OC)c2ccccc2)cc1` (stereo not drawn) [Example 58, N-[2-(4-N'-Methyl-N'-carbomethoxymethylaminophenyl)-1-methylethyl]-2-methoxy-2-phenylethanamine dihydrochloride], the inhibition in vivo at 2.5 µmol/kg in the experiment with blood glucose (setting [6]) is 17%. In addition, the response vs control in vivo at 22.1 mg/kg in experiment [1] (setting [4]) came to 108%; in experiment [1] (22.1 mg/kg po, 0-3 h, read-out: Mean Energy Expenditure (0-3 h)), 131%.

Turning to `CNCCOc1ccc(C[C@@H](C)NC[C@H](OC)c2ccccc2)cc1` [Example 59, N-[2-(4-(2-Methylaminoethoxy)phenyl)-1-(R)-1-methylethyl]-2-(R)-2-methoxy-2-phenylethanamine dihydrochloride hemihydrate], the inhibition in vivo at 25 µmol/kg in the experiment with blood glucose (25 μmol/Kg oral, 2 h after glucose 1 g/Kg s.c., vs control, read-out: % Reduction in area under Blood Glucose Curve) turned out to be 36%. Besides, the response vs control in vivo at 8.5 mg/kg was 148% in experiment [1] (0-3 h, read-out: Mean Energy Expenditure (0-3 h)) and 111% in experiment [1] (0-21 h, read-out: Mean Energy Expenditure (0-21 h)).

The term EC50 denotes the concentration that produces a half-maximal response. Read a high EC50 as a less potent agent.
